What was measured:
[1] = Example 1: tagatose given to a human patient with lowered HDL level; type: in vivo; conditions: 15 grams with each of three meals per day, after six months
Source text: A human patient is diagnosed as having a lowered HDL level than that found in a previous visit. The physician is concerned that this may forecast atherosclerosis, possibly leading to a heart attack, or to a stroke. The physician prescribes that the patient take 15 grams of tagatose with each of three meals per day. […] The physician is satisfied with the improvement and prescribes continued […] doses of tagatose per meal as a means of maintaining and improving the patient's cardiovascular health.

[2] = Pilot study of long term effects of D-tagatose in humans with type-2 diabetes (University of Maryland); type: in vivo; conditions: long term treatment; each of the subjects, both the patients (type-2 diabetes) and the controls
Protocol: U.S. Pat. No. 5,447,917 discloses and claims a method for treating diabetes by administering to a mammal an amount of D-tagatose effective to inhibit the rise in blood sugar associated with the consumption of sugar. A pilot study was conducted at the University of Maryland to investigate the long term effects of D-tagatose in humans with type-2 diabetes.

With `O=C(CO)[C@@H](O)[C@@H](O)[C@H](O)CO` [tagatose] the “patient's HDL level versus immediately before treatment” value [1] was “significantly higher”.

For `O=C(CO)[C@@H](O)[C@@H](O)[C@H](O)CO` [D-tagatose], the HDL-cholesterol levels [2] was “increase in HDL-cholesterol levels”.

— patent US20020137725A1, “Use of tagatose in promoting cardiovascular health” (priority 2001, published 2002)
